Measured values as given in patent US10757937B2, “Sulfonamides that activate ABA receptors” (The Regents of the University of California, priority 2014, dated 2020).
Read-outs that look alike come from different tables or passages of the source.

How the values were obtained:
PYL4 = target: T1, PYL4 (Arabidopsis thaliana, UniProt O80920); test: receptor-mediated PP2C (HAB1) inhibition in vitro assay; assay type: biochemical; conditions: compound at 25 μM; control without agonist = 100%
T1 construct: 6X-His; made in house; host or cells: E. coli BL21[DE3]pLysS
T1 sequence (O80920 1-207): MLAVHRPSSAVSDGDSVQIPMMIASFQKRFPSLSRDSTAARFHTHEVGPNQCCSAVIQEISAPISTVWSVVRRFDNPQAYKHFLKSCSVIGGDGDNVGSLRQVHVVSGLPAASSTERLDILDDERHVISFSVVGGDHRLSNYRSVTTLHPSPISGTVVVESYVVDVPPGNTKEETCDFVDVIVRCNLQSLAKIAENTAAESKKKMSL
T1 sequence (Q9CAJ0 23-511 partner): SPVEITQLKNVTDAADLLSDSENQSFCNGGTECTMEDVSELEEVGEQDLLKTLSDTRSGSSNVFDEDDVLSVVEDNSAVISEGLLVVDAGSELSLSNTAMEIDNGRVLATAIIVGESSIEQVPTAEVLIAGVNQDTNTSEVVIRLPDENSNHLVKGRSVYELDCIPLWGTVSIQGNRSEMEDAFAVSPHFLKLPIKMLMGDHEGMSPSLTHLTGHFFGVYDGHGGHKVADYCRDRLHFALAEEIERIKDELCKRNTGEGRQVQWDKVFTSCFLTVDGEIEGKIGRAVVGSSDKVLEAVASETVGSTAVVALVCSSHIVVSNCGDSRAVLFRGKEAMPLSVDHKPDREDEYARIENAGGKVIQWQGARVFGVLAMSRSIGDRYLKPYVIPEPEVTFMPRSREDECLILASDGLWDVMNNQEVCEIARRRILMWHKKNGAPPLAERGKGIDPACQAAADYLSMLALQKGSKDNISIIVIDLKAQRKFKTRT
Experimental: (§1) A family of 62 structurally related N-acyl sulfonamides (Tables I-V) were tested for ABA agonist activity using multiple receptor-mediated PP2C inhibition in vitro assays (Park et al., 2009). […] The constructs utilized for protein expression have been previously described (Okamoto et al. 2013). For constructs encoding 6X-His-fusion proteins (all receptors except PYL11), the coding sequences were of the receptors were cloned in the vector pET28, expressed in BL21[DE3]pLysS E. coli host cells at 18° C. overnight, and subsequently purified from sonicated lysates using Ni-NTA agarose (Qiagen, USA), according to the manufacturer's instructions. PYL11 was constructed as a maltose binding protein fusion in the vector pMAL-c, expressed in BL21┌DE3┐pLysS host cells and purified using amylose resin (New England Biolabs) as described by the manufacturer. Recombinant GST-HAB1 was expressed and purified as described previously (Park et al., 2009). PP2C activity assays were conducted using the fluorogenic phosphatase substrate 4-methylumbelliferyl-phosphate. Recombinant receptors and HAB1 were used to examine ligand-induced PP2C inactivation in response to multiple test compounds. Enzyme inhibition assays were conducted using the following assay conditions: 50 nM GST-PP2C, 100 mM Tris-OAc (pH 7.9), 100 mM NaCl, 1 mM MnCl2, 1% β-mercaptoethanol. […] Because of this, the ratio of each receptor used in the PP2C-inhibitions assays was established empirically as the minimum fold-excess of receptor required to elicit maximal PP2C inhibition at a saturating ABA concentration (10 μM).
(§2) Based on this criterion, we used a ratio of 2:1 receptor in the assays described herein.
(§3) Using the above assay conditions, compounds were tested at 25 μM for agonist activity on PYL4, PYL5, PYL8 and PYL9. […] Consequently, a subset of the compounds was tested at multiple concentrations against 11 receptors so that IC50 values and receptor selectivity profiles could be examined. […] Thus, the N-acylsulfonamide agonists disclosed are selective for monomeric receptors.
(§4) Additional compounds were tested for biological activity following the procedures of Example 1 with minor modifications.
(§5) For these in vitro receptor assays, the compounds listed were tested in in vitro PP2C inhibition assays with 50 uM of the test compound except for ABA (10 uM). IC50s were calculated from dose curves, but only for selected compounds.

PYL5 = target: T2, PYL5 (Arabidopsis thaliana, UniProt Q9FLB1); test: as above; assay type: biochemical; conditions: compound at 25 μM; control without agonist = 100%
T2 construct: 6X-His; made in house; host or cells: E. coli BL21[DE3]pLysS
T2 sequence (Q9FLB1 1-203): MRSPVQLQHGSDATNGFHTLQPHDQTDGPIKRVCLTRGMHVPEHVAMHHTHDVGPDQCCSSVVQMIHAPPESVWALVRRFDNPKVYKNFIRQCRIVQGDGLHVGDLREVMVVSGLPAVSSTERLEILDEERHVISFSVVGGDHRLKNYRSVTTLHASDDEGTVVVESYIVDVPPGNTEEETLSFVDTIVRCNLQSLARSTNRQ
T2 sequence (Q9CAJ0 23-511 partner): T1 sequence (Q9CAJ0 23-511 partner)
Experimental: as §1, §2, §3, §4, §5

PYL8 = target: T3, PYL8 (Arabidopsis thaliana, UniProt Q9FGM1); test: as above; assay type: biochemical; conditions: compound at 25 μM; control without agonist = 100%
T3 construct: 6X-His; made in house; host or cells: E. coli BL21[DE3]pLysS
T3 sequence (Q9FGM1 1-188): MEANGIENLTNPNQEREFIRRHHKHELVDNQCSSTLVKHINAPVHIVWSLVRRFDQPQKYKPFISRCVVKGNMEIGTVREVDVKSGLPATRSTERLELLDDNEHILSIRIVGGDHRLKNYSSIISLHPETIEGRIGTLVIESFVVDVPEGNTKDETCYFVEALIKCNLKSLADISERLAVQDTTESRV
T3 sequence (Q9CAJ0 23-511 partner): T1 sequence (Q9CAJ0 23-511 partner)
Experimental: as §1, §2, §3, §4, §5

PYL9 = target: T4, PYL9 (Arabidopsis thaliana, UniProt Q84MC7); test: as above; assay type: biochemical; conditions: compound at 25 μM; control without agonist = 100%
T4 construct: 6X-His; made in house; host or cells: E. coli BL21[DE3]pLysS
T4 sequence (Q84MC7 1-187): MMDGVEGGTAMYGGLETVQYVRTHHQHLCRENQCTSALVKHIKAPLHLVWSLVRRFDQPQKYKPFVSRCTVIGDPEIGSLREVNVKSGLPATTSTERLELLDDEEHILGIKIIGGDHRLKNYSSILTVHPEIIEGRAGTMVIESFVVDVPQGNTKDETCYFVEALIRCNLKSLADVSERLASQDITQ
T4 sequence (Q9CAJ0 23-511 partner): T1 sequence (Q9CAJ0 23-511 partner)
Experimental: as §1, §2, §3, §4, §5

[1] = system: Arabidopsis seed germination and hypocotyl growth; test: Arabidopsis seed germination and hypocotyl growth; assay type: in vivo; conditions: − = none; for Hypocotyl Growth Inhibition / Germination Inhibition: Germination Inhibition II, tested at 10 and 50 uM; for Hypocotyl Growth Inhibition: lowest concentration that inhibited hypocotyl growth in wells where seeds germinated; for minimal effective concentration: Table VIII, tested at 10 or 50 μM, lowest inhibiting concentration; for Germination Inhibition: lowest of the two concentrations that inhibited
Experimental: We germinated seeds from wild type on ½× strength Murashige and Skoog salts growth medium containing either 10 or 50 μM for all 62 compounds as well as 1 μM (+)-ABA and mock controls. […] To investigate if the any of the compounds are sufficient to control vegetative ABA responses, we treated three week old Arabidopsis plants with aqueous solutions containing 0.02% Silwet and either 50 μM of selected N-acylsulfonamides, 50 μM ABA or 0.1% DMSO (the carrier solvent for the compounds tested). The leaf temperatures were subsequently examined using a thermal imaging camera 24 hours after treatment. It is well known that ABA-induced guard cell closure reduces transpiration, which leads to increases in leaf temperatures. It has been estimated that a 1° C. increase in leaf temperature correlates with a decrease in transpiration rates by approximately 50% (Sirault et al., 2009). Since guard cell aperture is the primary determinant of transpiration rates, thermal imaging is a useful way to indirectly infer relative transpiration rates and, indirectly, relative degrees of guard cell opening at the whole plant level.
as §4
For the germination inhibition experiment, the compounds were tested at 10 and 50 uM. The amounts shown are the lowest of the two concentrations that either inhibited germination or hypocotyl growth in wells where seeds germinated.
For the germination test, the compounds were tested at 1, 5, 10, 25 and 50 uM. The amounts shown are the lowest of the concentrations that either inhibited germination or hypocotyl growth in the wells where seeds germinated.

[2] = read-out: Hypocotyl Growth Inhibition
[3] = ABA at 1 μM, read-out: Germination Inhibition

| PP2C Activity (25 μm) PYL4 (PYL4) [%] | PP2C Activity (25 μm) PYL5 (PYL5) [%] | PP2C Activity (25 μm) PYL8 (PYL8) [%] | PP2C Activity (25 μm) PYL9 (PYL9) [%] | Structure (SMILES) | Hypocotyl Growth Inhibition [1] [µM] | minimal effective concentration [1, 2] [µM] | Germination Inhibition [1] [µM] | minimal effective concentration [1, 3] [µM] |
| --- | --- | --- | --- | --- | --- | --- | --- | --- |
| 89 | 86 | 83 | 61 | CC(C)(C(=O)NS(=O)(=O)Cc1ccccc1)c1ccccc1 [Compound 5] | 50 | 50 |  |  |
| 91 | 41 | 77 | 69 | CC(C)(C(=O)NS(=O)(=O)Cc1ccc(C#N)cc1)c1ccccc1F [Compound 8] | 10 | 10 | 50 | 50 |
| 91 | 43 | 58 | 47 | CC(C)(C(=O)NS(=O)(=O)Cc1ccc(C#N)cc1)c1cccc(Br)c1 [Compound 9] | 10 | 10 |  |  |
| 92 | 43 | 62 | 47 | Cc1ccc(C(C)(C)C(=O)NS(=O)(=O)Cc2ccc(C#N)cc2)cc1 [Compound 12] | 50 | 50 |  |  |
| 96 | 51 | 57 | 46 | CC(C)(C(=O)NS(=O)(=O)Cc1ccc(C#N)cc1)c1cccc(Cl)c1 [Compound 15] | 10 | 10 |  |  |
| 93 | 47 | 43 | 30 | CC(C)(C(=O)NS(=O)(=O)Cc1ccc(C#N)cc1)c1cccc(F)c1 [Compound 16] | 10 | 10 | 50 | 50 |
| 85 | 96 | 95 | 94 | CCC(CC)(C(=O)NS(=O)(=O)Cc1ccccc1C#N)c1ccccc1 [Compound 17] | 50 | 50 |  |  |
| 95 | 85 | 91 | 92 | COc1ccc(C(C)(C)C(=O)NS(=O)(=O)Cc2ccc(C#N)cc2)cc1 [Compound 22] | 10 | 10 |  |  |

The remaining lines, values behind:

| Structure (SMILES) | PP2C Activity (25 μm) PYL4 (PYL4) [%] | PP2C Activity (25 μm) PYL5 (PYL5) [%] | PP2C Activity (25 μm) PYL8 (PYL8) [%] | PP2C Activity (25 μm) PYL9 (PYL9) [%] | Hypocotyl Growth Inhibition [1] [µM] | minimal effective concentration [1, 2] [µM] | Germination Inhibition [1] [µM] | minimal effective concentration [1, 3] [µM] |
| --- | --- | --- | --- | --- | --- | --- | --- | --- |
| CCC(CC)(C(=O)NS(=O)(=O)Cc1ccc(C#N)cc1)c1ccc(Cl)cc1 [Compound 10] | 93 | 75 | 83 | 73 | 50 | 50 |  |  |
| N#Cc1ccc(CS(=O)(=O)NC(=O)C2(c3ccccc3)CC2)cc1 [Compound 27] | 97 | 39 | 77 | 63 | 50 | 50 |  |  |
| N#Cc1ccc(CS(=O)(=O)NC(=O)C2(c3ccc(Cl)cc3)CCC2)cc1 [Compound 28] | 96 | 65 | 55 | 37 | 10 | 10 |  |  |
| N#Cc1ccc(CS(=O)(=O)NC(=O)C2(c3cccc(F)c3)CCC2)cc1 [Compound 33] | 98 | 81 | 39 | 24 | 10 | 10 |  |  |
| CC(C)(C)c1ccc(C2(C(=O)NS(=O)(=O)Cc3ccc(C#N)cc3)CC2)cc1 [Compound 34] | 95 | 99 | 103 | 107 |  |  | 50 | 50 |
| Cc1cccc(C2(C(=O)NS(=O)(=O)Cc3ccc(C#N)cc3)CC2)c1 [Compound 38] | 92 | 41 | 77 | 66 | 50 | 50 |  |  |
| COc1ccc(C2(C(=O)NS(=O)(=O)Cc3ccc(C#N)cc3)CCCC2)cc1 [Compound 39] | 98 | 110 | 71 | 66 | 10 | 10 | 50 | 50 |
| COc1ccccc1C1(C(=O)NS(=O)(=O)Cc2ccc(C#N)cc2)CC1 [Compound 41] | 93 | 27 | 89 | 81 | 10 | 10 |  |  |
